In PubChem BioAssay (NCI) one finds TGI data, which are given here for 9 compounds.

Holding throughout (assay): growth of human tumour cells (NCI), 48 h
Experiment [1] concerns HOP-92 NSCLC.
In experiment [2] the test system is A549 NSCLC.
Experiment [3] deals with CCRF-CEM leukemia.
Experiment [4] relates to OVCAR-3 ovarian.
For experiment [5], the system named is OVCAR-4 ovarian.
Experiment [6] deals with SK-MEL-28 melanoma.
For experiment [7], the system named is SNB-19 CNS.
In experiment [8] the test system is TK-10 renal.
Experiment [9] concerns SW-620 colon.
The test system of experiment [10] is KM12 colon.
For experiment [11], the system named is UACC-257 melanoma.
The test system of experiment [12] is IGROV1 ovarian.
Experiment [13] relates to ACHN renal.
Experiment [14] concerns HL-60(TB) leukemia.
Experiment [15] relates to MALME-3M melanoma.
Experiment [16] concerns HOP-62 NSCLC.
For experiment [17], the system named is SF-539 CNS.

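Step 1: Grow cells in 96-well plates. Step 2: Expose to compound for 48 hours at 5 concentrations. Step 3: Interpolate endpoints linearly; if unreached, use highest concentration. TGI marks complete inhibition of growth.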 Where only a bound is given, the exact number is not on record here.

Consider `Cc1ccc(/C=C/C(=O)C(C)C)cc1`, for which the TGI in experiment [1] is above 100 µM; in experiment [2] it was above 100 µM; in experiment [3], 67.3 µM; in [4], 83.1 µM; in experiment [5] it was above 100 µM; in experiment [6], above 100 µM. The TGI in [7], in experiment [8], in [9], in [10], in experiment [11] and in experiment [12] was above 100 µM throughout. In addition, in experiment [13], the TGI is above 100 µM.
Regarding `Nc1ccc2ncc(Nc3ccc(F)cc3)nc2c1`, the TGI in experiment [2], in experiment [3], in experiment [14], in experiment [4], in experiment [15] and in [16] was above 100 µM in each case. Moreover, the TGI in experiment [5], in experiment [17], in [6], in experiment [7], in experiment [8] and in [9] was above 100 µM each time. Besides, the TGI in [10], in [11] and in [13] was above 100 µM throughout.
As to `COc1cc(C(C#N)NNC(=O)Cc2ccccc2)cc(OC)c1OC` (centres undefined), the TGI in experiment [1], in [2], in experiment [14], in experiment [4], in experiment [15] and in [16] was above 100 µM each time. Besides, the TGI in [5], in [17], in experiment [6], in experiment [8], in [9] and in experiment [10] was above 100 µM throughout. Further, the TGI in experiment [11], in [12] and in experiment [13] was above 100 µM each time.
As to `COc1cc2c(cc1O)[C@H](C)C(c1ccccc1OC)O2` (some centres undefined), the TGI in experiment [1] is 62.8 µM; in experiment [2] it was above 100 µM; in experiment [3] it was 30.6 µM; in experiment [14], 7.5 µM; in [4] it was above 100 µM; in experiment [15], above 100 µM. For the same compound, the TGI was 60.2 µM in experiment [5]; 41.5 µM in experiment [17]; above 100 µM in experiment [6]; above 100 µM in [7]; above 100 µM in [8]; 12.2 µM in experiment [9]. In addition, the TGI is above 100 µM in experiment [10], above 100 µM in experiment [11], above 100 µM in [12] and 23.9 µM in experiment [13].
`O=C(CSc1nnc(Cc2ccccc2)o1)Nc1ccccc1Cl`: the TGI in experiment [2], in experiment [3], in [14], in experiment [4], in experiment [15] and in experiment [16] was above 100 µM in each case. Besides, the TGI in [5], in experiment [17], in experiment [6], in experiment [7], in experiment [8] and in [9] was above 100 µM each time. The TGI in experiment [10], in experiment [12] and in experiment [13] was above 100 µM throughout.
For the compound `COc1ccc([C@@H]2CC(=O)NCCCNCCCCNCCCN2)cc1`, the TGI in experiment [1], in experiment [2], in experiment [3], in experiment [14], in experiment [15] and in experiment [16] was above 100 µM in each case. Further, the TGI in experiment [5], in experiment [17], in [6], in [7], in experiment [8] and in experiment [9] was above 100 µM each time. For the same compound, the TGI in [10], in [11], in experiment [12] and in experiment [13] was above 100 µM each time.
With `Fc1ccc2c(c1)SC1Oc3ccccc3-c3c1c-2nn3-c1ccccc1` (centres undefined), the TGI in [1], in experiment [2], in [3], in experiment [14], in experiment [4] and in experiment [15] was above 100 µM in each case. For the same compound, the TGI in [16], in experiment [17], in [6], in [8], in [9] and in experiment [10] was above 100 µM throughout. Further, the TGI in experiment [11], in [12] and in experiment [13] was above 100 µM each time.
In the case of `CCOc1ccccc1NC(=O)C(=O)C(C(=O)c1ccc2ccccc2c1)C1OC(=O)c2ccccc21` (centres undefined), the TGI amounted to 38.1 µM in [1]; 98.2 µM in experiment [2]; 69.1 µM in experiment [3]; 59.3 µM in experiment [14]; 52 µM in experiment [4]; 30.2 µM in [15]. Moreover, the TGI is 31.2 µM in experiment [16]; 24.6 µM in [5]; 24.8 µM in experiment [17]; 35.5 µM in experiment [6]; 22 µM in experiment [7]; 54.8 µM in experiment [8]. The TGI in experiment [9] was 33.8 µM; in experiment [10], 59.5 µM; in [11], 50.9 µM; in experiment [12] it was 35.2 µM; in [13], above 100 µM.
For `CN/C=C(/c1ccc(OC)cc1)C(O)c1ccc(OC)c(OC)c1` (centres undefined), the TGI in experiment [1], in experiment [2], in [3], in experiment [14], in experiment [4] and in [15] was above 100 µM each time. Besides, the TGI in [16], in [5], in experiment [17], in experiment [6], in [7] and in [8] was above 100 µM each time. The TGI in experiment [9], in experiment [10], in experiment [11], in [12] and in experiment [13] was above 100 µM throughout.
